Measurements from ChEMBL document CHEMBL2073797, “Characterization of an organic anion-transporting polypeptide (OATP-B) in human placenta” (J Clin Endocrinol Metab, 2002).
Structures can show the parent of a compound that is named as a salt.

Biological target: T1, Solute carrier organic anion transporter family member 2B1 (OATP2B1) (Homo sapiens, UniProt O94956)
T1 sequence (O94956 whole entry): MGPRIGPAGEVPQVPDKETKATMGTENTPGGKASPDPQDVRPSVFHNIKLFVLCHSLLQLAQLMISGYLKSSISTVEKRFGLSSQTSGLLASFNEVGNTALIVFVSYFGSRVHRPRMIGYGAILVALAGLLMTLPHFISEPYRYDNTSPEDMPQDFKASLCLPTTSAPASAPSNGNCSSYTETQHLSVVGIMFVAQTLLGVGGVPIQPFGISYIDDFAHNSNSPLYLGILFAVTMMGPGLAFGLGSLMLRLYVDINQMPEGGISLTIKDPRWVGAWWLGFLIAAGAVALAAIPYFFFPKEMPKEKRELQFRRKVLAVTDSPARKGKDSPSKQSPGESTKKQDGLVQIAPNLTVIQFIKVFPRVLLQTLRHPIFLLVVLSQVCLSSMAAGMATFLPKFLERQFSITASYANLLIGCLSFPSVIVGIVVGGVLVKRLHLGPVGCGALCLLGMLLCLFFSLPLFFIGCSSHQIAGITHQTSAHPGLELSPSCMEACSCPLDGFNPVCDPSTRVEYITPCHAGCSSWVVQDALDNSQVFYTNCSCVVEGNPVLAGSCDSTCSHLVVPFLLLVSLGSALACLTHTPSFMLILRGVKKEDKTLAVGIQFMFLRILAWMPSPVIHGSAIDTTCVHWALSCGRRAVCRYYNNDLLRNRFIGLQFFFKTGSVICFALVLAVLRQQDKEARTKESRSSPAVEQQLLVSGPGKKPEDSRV
Assay: TP_TRANSPORTER: inhibition of Estrone-3-sulfate uptake (Estrone-3-sulfate: 1 uM, Pregnenolone sulfate: 100 uM) in Xenopus laevis oocytes
Format: functional, cell-based, Oocyte
Conditions: Xenopus laevis oocytes expressing OATP2B1 (SLCO2B1), probe Estrone-3-sulfate (1 uM)

CC(=O)[C@H]1CC[C@H]2[C@@H]3CC=C4C[C@@H](OS(=O)(=O)O)CC[C@]4(C)[C@H]3CC[C@]12C [PREGNENOLONE SULFATE]
inhibition at 100 µM: 83%
